Experimental data published in PubChem BioAssay (NCI).
Several values for one entry are separate records, joined by “and”; a condition that tells them apart may be missing. Equal values may be shown once.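 96-well plates; 48 h exposure; 5 concentrations. Endpoints by linear interpolation between flanking doses. Not reached: highest tested concentration assigned. GI50 = concentration required for 50% inhibition of growth. At the TGI there is no net growth.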 *1 amine or outer side, *2 acyl side, *3 side chain or, on linkers, in order; H or OH if unused. Where a SMILES comes first, the peptide text is derived from it. Bridges are numbered along the chain shown (N, C = ends). Roman numbers before positions name the chains, in order. [ ]: non-standard residue; d: D form. Actinocin(9to1) = Cc1c2oc3c(C)ccc(C(=O)[*:1])c3nc-2c(C(=O)[*:2])c(N)c1=O; NMeV = CN[CH](C(=O)O)C(C)C; Sar = CNCC(=O)O

Legend:
Assay in all cases: NCI-60 cell line screen, 48 h
[1] = test system: A498 renal
[2] = test system: A549 NSCLC
[3] = test system: CCRF-CEM leukemia
[4] = test system: COLO 205 colon
[5] = test system: M14 melanoma
[6] = test system: MALME-3M melanoma
[7] = test system: MDA-MB-231 breast
[8] = test system: SF-268 CNS
[9] = test system: SNB-75 CNS
[10] = test system: SN12C renal

SMILES: C/C(=N\NC(=O)CC#N)C(CN1CCCCC1)C(c1ccccc1)c1c(O)c2ccccc2oc1=O (stereo unspecified)
- TGI [1]: 82500 nM
- TGI [2]: > 100000 nM
- TGI [3]: 73500 nM
- TGI [4]: 32600 nM
- TGI [5]: > 100000 nM
- TGI [6]: > 100000 nM
- TGI [7]: > 100000 nM
- TGI [8]: > 100000 nM
- TGI [9]: > 100000 nM

SMILES: CCn1c(-c2c(Cl)cc(O)cc2Cl)cc2c(Cl)cc(O)cc21
- TGI [1]: 30100 nM
- TGI [2]: 44200 nM
- TGI [3]: > 100000 nM
- TGI [4]: 36800 nM
- TGI [5]: 91500 nM
- TGI [6]: 39300 nM
- TGI [7]: 31000 nM
- TGI [8]: 16100 nM
- TGI [10]: > 100000 nM
- TGI [9]: 20900 nM

SMILES: O=C1/C(=C/c2ccc(F)c(F)c2)CN(C(=O)C(Cl)Cl)C/C1=C\c1ccc(F)c(F)c1
- GI50 [1]: 183 nM
- TGI [1]: 550 nM
- GI50 [2]: 262 nM
- TGI [2]: 1090 nM
- GI50 [3]: 26.6 nM
- TGI [3]: > 100000 nM
- GI50 [4]: 175 nM
- TGI [4]: 756 nM
- GI50 [5]: 168 nM
- TGI [5]: 515 nM
- GI50 [6]: 199 nM
- TGI [6]: 539 nM
- GI50 [7]: 194 nM
- TGI [7]: 692 nM
- GI50 [8]: 265 nM
- TGI [8]: 982 nM
- GI50 [10]: 112 nM
- TGI [10]: 381 nM
- GI50 [9]: 290 nM
- TGI [9]: 1300 nM

SMILES: CCN(CC)CCCOc1ccc2ncnc(Nc3ccc(Oc4cccc(C(F)(F)F)c4)c(Cl)c3)c2c1
- GI50 [1]: 229 nM
- TGI [1]: 3560 nM
- GI50 [3]: 2260 nM
- TGI [3]: 14200 nM
- GI50 [6]: 1570 nM
- TGI [6]: 3040 nM
- GI50 [7]: 1790 nM
- TGI [7]: 3240 nM
- GI50 [8]: 1440 nM
- TGI [8]: 3070 nM
- GI50 [10]: 1340 nM
- TGI [10]: 2690 nM
- GI50 [9]: 1490 nM
- TGI [9]: 2860 nM

SMILES: Cc1cc2c(cc1C)[n+](=O)c(C(=O)/C=C/c1ccc3c(c1)OCO3)c(C)n2[O-]
- TGI [1]: > 100000 nM
- TGI [2]: > 100000 nM
- TGI [3]: > 100000 nM
- TGI [4]: > 100000 nM
- TGI [5]: > 100000 nM
- TGI [6]: > 100000 nM
- TGI [7]: > 100000 nM
- TGI [8]: > 76900 nM
- TGI [10]: > 100000 nM
- TGI [9]: 39900 nM

SMILES: CC(=Nc1ccccc1)C1=C(O)C(Cc2cccc(F)c2)NC1=O (stereo unspecified)
- GI50 [1]: 35.6 nM
- TGI [1]: 426 nM
- GI50 [2]: 51.1 nM
- TGI [2]: > 100000 nM
- GI50 [3]: 58.1 nM
- TGI [3]: > 100000 nM
- GI50 [4]: 35 nM
- TGI [4]: 141 nM
- GI50 [5]: 48.7 nM
- TGI [5]: > 100000 nM
- GI50 [6]: 41.9 nM
- TGI [6]: > 100000 nM
- GI50 [7]: 178 nM
- TGI [7]: 1930 nM
- GI50 [8]: 71 nM
- TGI [8]: > 100000 nM
- GI50 [10]: 129 nM
- TGI [10]: > 100000 nM

SMILES: O=C1Nc2ccccc2/C1=C\c1cccc(/C=C2/C(=O)Nc3ccccc32)n1
- GI50 [1]: 1500 nM
- TGI [1]: 2900 nM
- GI50 [3]: 356 nM
- TGI [3]: > 100000 nM
- GI50 [4]: 356 nM
- TGI [4]: 1570 nM
- GI50 [5]: 484 nM
- TGI [5]: 2110 nM
- GI50 [6]: 300 nM
- TGI [6]: 1080 nM
- GI50 [7]: 1250 nM
- TGI [7]: 2770 nM
- GI50 [8]: 362 nM
- TGI [8]: 1390 nM
- GI50 [10]: 357 nM
- TGI [10]: 1360 nM
- GI50 [9]: 1320 nM
- TGI [9]: 3460 nM

SMILES: COc1cc2c3c(n(CCCCNC(=O)OC(C)(C)C)c(=O)c2cc1OC)-c1cc2c(cc1C3=O)OCO2
- GI50 [1]: > 100000 nM
- TGI [1]: > 100000 nM
- GI50 [2]: > 100000 nM
- TGI [2]: > 100000 nM
- GI50 [4]: > 100000 nM
- TGI [4]: > 100000 nM
- GI50 [5]: > 100000 nM
- TGI [5]: > 100000 nM
- GI50 [6]: > 100000 nM
- TGI [6]: > 100000 nM
- GI50 [7]: > 100000 nM
- TGI [7]: > 100000 nM
- GI50 [8]: 15300 nM
- TGI [8]: > 100000 nM
- GI50 [10]: 78000 nM
- TGI [10]: > 100000 nM
- GI50 [9]: 33200 nM
- TGI [9]: > 100000 nM

SMILES: Cc1c2oc3c(C)ccc(C(=O)OC(C)C4NC(=O)C(C(C)C)N(C)C(=O)CN(C)C(=O)C5CCCN5C(=O)C(C(C)C)NC4=O)c3nc-2c(C(=O)OC(C)C2NC(=O)C(C(C)C)N(C)C(=O)CN(C)C(=O)C3CCCN3C(=O)C(C(C)C)NC2=O)c(N)c1=O (stereo unspecified) (I: cyclo([Sar][NMeV]TVP) / II: cyclo([Sar][NMeV]TVP); linker I:3-II:3 via Actinocin(9to1); configuration not given here)
- GI50 [1]: < 10.7 nM
- TGI [1]: 29.4 nM
- GI50 [3]: < 11.1 nM
- TGI [3]: > 66300 nM
- GI50 [4]: < 10 nM
- TGI [4]: 16.3 nM
- GI50 [5]: 11.7 nM
- TGI [5]: 51.7 nM
- GI50 [6]: < 10 nM
- TGI [6]: 28.2 nM
- GI50 [7]: 15.2 nM
- GI50 [8]: < 10 nM
- TGI [8]: 913 nM
- GI50 [10]: < 10 nM
- TGI [10]: > 100000 nM
- GI50 [9]: < 10.9 nM
- TGI [9]: 39 nM

SMILES: O=C(O)C(Br)C(Br)C(=O)O (stereo unspecified)
- TGI [1]: > 100000 nM
- TGI [2]: > 100000 nM
- TGI [4]: > 100000 nM
- TGI [5]: > 100000 nM
- TGI [6]: > 100000 nM
- TGI [7]: > 100000 nM
- TGI [8]: > 100000 nM
- TGI [10]: > 100000 nM
- TGI [9]: > 100000 nM

SMILES: CC(=O)O[C@@]12CO[C@@H]1C[C@H](O)[C@@]1(C)C(=O)[C@H](O)C3=C(C)[C@@H](OC(=O)[C@H](O)[C@@H](NC(=O)OC(C)(C)C)c4ccccc4)C[C@@](O)([C@@H](OC(=O)c4ccccc4)C12)C3(C)C (stereo partly specified)
- TGI [1]: 37000 nM and 73100 nM
- GI50 [2]: < 5 nM
- TGI [2]: 50000 nM and > 100000 nM
- GI50 [3]: < 5 nM
- TGI [3]: 29300 nM and 60800 nM
- TGI [4]: 25.1 nM
- GI50 [6]: 11300 nM
- TGI [6]: 29600 nM
- GI50 [7]: 7.51 nM and 71.7 nM
- TGI [7]: 28000 nM and > 100000 nM
- TGI [8]: 81500 nM
- GI50 [10]: < 5 nM
- TGI [10]: 50000 nM
